The results in this text go back to paper PMC6496074, “The Evolution of Azole Resistance in Candida albicans Sterol 14α-Demethylase (CYP51) through Incremental Amino Acid Substitutions” (Antimicrobial Agents and Chemotherapy, 2019).

For experiment [1], the system named is CaCYP51 Y132F+F145L. Briefly: CYP51 reconstitution assay. The experiment is classed as biochemical, Candida albicans. To be noted: Y132F+F145L. As to the method: (§1) Azole antifungal agents were added in 2.5 μl dimethyl sulfoxide, followed by 10 min of incubation at 37°C prior to assay initiation with 4 mM β-NADPH-Na4. The samples were then shaken for 15 min at 37°C. Sterol metabolites were recovered by extraction with ethyl acetate, followed by derivatization with 0.1 ml N,O-bis(trimethylsilyl)trifluoroacetamide (BSTFA)–trimethylchlorosilane (TMCS) (99:1) and 0.3 ml anhydrous pyridine (2 h at 80°C), prior to analysis by gas chromatography-mass spectrometry (GC-MS) ([52]). IC50 determinations were performed in duplicate.

For experiment [2], the system named is CaCYP51 Y132F+K143R. Briefly: CYP51 reconstitution assay. It counts as biochemical, Candida albicans. As to conditions: Y132F+K143R. As to the method:
as §1

The target in experiment [3] is T1, CaCYP51 Y132F+F145L (Candida albicans, UniProt P10613, F145L/Y132F).
T1 construct: made in house; host or cells: E. coli DH5α (pCWori+)
T1 sequence (P10613 whole entry, looked up, stated change not applied): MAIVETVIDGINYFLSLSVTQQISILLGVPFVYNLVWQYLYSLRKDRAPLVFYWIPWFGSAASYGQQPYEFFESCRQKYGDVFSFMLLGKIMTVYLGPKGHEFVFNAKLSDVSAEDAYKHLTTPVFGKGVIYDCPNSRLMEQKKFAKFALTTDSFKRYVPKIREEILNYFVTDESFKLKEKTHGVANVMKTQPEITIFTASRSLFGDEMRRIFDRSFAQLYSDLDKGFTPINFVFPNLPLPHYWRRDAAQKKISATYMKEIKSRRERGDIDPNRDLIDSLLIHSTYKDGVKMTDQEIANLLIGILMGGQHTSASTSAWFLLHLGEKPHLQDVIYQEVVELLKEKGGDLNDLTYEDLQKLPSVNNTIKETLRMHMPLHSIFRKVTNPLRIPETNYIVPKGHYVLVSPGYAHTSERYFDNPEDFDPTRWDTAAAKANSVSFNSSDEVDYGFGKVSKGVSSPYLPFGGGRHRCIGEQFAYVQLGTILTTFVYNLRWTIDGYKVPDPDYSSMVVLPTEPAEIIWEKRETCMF
In words: Azole ligand binding (type II difference spectra). As to the method: (§2) Studies of azole antifungal binding to 4 μM CaCYP51 proteins were performed as previously described ([53]) using quartz split cuvettes with a 4.5-mm light path. […] Azole antifungals were progressively titrated against the CaCYP51 proteins in 0.1 M Tris-HCl (pH 8.1) and 25% glycerol at 22°C, with equivalent volumes of dimethyl sulfoxide also being added to the CYP51-containing compartment of the reference cuvette. The absorbance difference spectra between 500 and 350 nm were determined after each incremental addition of azole, with binding saturation curves constructed from the change in the peak and trough absorbance (ΔApeak-trough) against the azole concentration. The dissociation constant (Kd) of the enzyme-azole complex for each azole was determined by nonlinear regression (Levenberg-Marquardt algorithm) using a rearrangement of the Morrison equation for tight ligand binding ([54], [55]). Tight binding is normally observed when the Kd for a ligand is similar to or lower than the concentration of the enzyme present ([56]). Where ligand binding was weak, the Michaelis-Menten equation was used to fit the data. Each binding determination was performed in triplicate. The chemical structures of the azole antifungals used in this study are shown in Fig. S5 in the supplemental material.

Experiment [4] addresses T2, CaCYP51 G307S+G450E (Candida albicans, UniProt P10613, G307S/G450E).
T2 construct: made in house; host or cells: E. coli DH5α (pCWori+)
Briefly: Azole ligand binding (type II difference spectra). As to the method:
as §2

Experiment [5] has as its target T3, CaCYP51 K143R (Candida albicans, UniProt P10613, K143R).
T3 construct: made in house; host or cells: E. coli DH5α (pCWori+)
Briefly: Azole ligand binding (type II difference spectra). To be noted: 4 μM protein, 22°C, ± standard deviation, triplicate, read-out: dissociation constant (Kd). As to the method:
as §2

The target of experiment [6] is T4, CaCYP51 Y132F+K143R (Candida albicans, UniProt P10613, K143R/Y132F).
T4 construct: made in house; host or cells: E. coli DH5α (pCWori+)
T4 sequence (P10613 whole entry, looked up, stated change not applied): as above
In words: Azole ligand binding (type II difference spectra). As to the method:
as §2

The target of experiment [7] is T5, CaCYP51 D278N (Candida albicans, UniProt P10613, D278N).
T5 construct: made in house; host or cells: E. coli DH5α (pCWori+)
T5 sequence (P10613 whole entry, looked up, stated change not applied): as above
Briefly: Azole ligand binding (type II difference spectra). To be noted: 4 μM protein, 22°C, ± standard deviation, triplicate, read-out: dissociation constant (Kd). As for the experimental part: as §2

Experiment [8] concerns the target T6, CaCYP51 G307S (Candida albicans, UniProt P10613, G307S).
T6 construct: made in house; host or cells: E. coli DH5α (pCWori+)
In words: Azole ligand binding (type II difference spectra). As to conditions: 4 μM protein, 22°C, ± standard deviation, triplicate, read-out: dissociation constant (Kd). As for the experimental part: as §2

The target in experiment [9] is T7, CaCYP51 S279F (Candida albicans, UniProt P10613, S279F).
T7 construct: made in house; host or cells: E. coli DH5α (pCWori+)
T7 sequence (P10613 whole entry, looked up, stated change not applied): as above
In words: Azole ligand binding (type II difference spectra). As to conditions: 4 μM protein, 22°C, ± standard deviation, triplicate, read-out: dissociation constant (Kd). As to the method: as §2

In experiment [10] the test system is C. albicans SC5314 strain with CaCYP51 substitution D278N+G464S. In words: CLSI broth microdilution MIC. The experiment is classed as cell-based, Candida albicans. As to conditions: for MIC: Candida albicans, SC5314, RPMI 1640, 24 h, 35°C, 50% reduction in growth. An excerpt: (§3) Strains expressing seven single mutations (Y132F, K143R, F145L, S405F, G448E, G450E, G464S) and three double mutations (Y132F+K143R, Y132F+F145L, D278N+G464S) were selected from a previous study ([36]). Two additional strains expressing the Y132H and D278N CYP51 gene mutations were created utilizing the SAT1/FLP cassette described previously ([44]). […] Successful transformants were screened on yeast-peptone-dextrose agar plates containing nourseothricin and confirmed via Southern hybridization. Genomic DNA from nourseothricin-screened transformants was digested with the HindIII restriction enzyme, and the resulting DNA digests were loaded on 1% agarose gels containing ethidium bromide. Digested samples were visualized briefly under UV light after approximately 2 h of electrophoresis (120 V) to confirm appropriate band separation. Lanes containing digested DNA in the gel were transferred onto a nitrocellulose membrane via vacuum suction, and DNA was cross-linked to the membrane through UV exposure. PCR amplification of the genomic DNA from parent isolate SC5314 using primers ERG11_Probe_F (5′-[…]-3′) and ERG11_Probe_R (5′-[…]-3′) generated a 254-bp product, used as a probe for the ERG11 gene locus. The probe was labeled and prepared using an Amersham AlkPhos direct labeling and detection system (GE Life Sciences) and hybridized to the membrane through overnight incubation at 55°C. Bands containing the hybridized, alkaline phosphatase-labeled probe corresponding to either wild-type ERG11 alleles (2,678 bp) or successfully replaced alleles with the SAT1/FLP cassette included (4,318 bp) or recycled (3,119 bp) were visualized with the CDP-Star chemiluminescent detection reagent. To confirm the sequence of the replaced ERG11 allele, a DNA fragment containing the ERG11 ORF and approximately 435 bp upstream of the start codon and 229 bp downstream of the ERG11 stop codon was PCR amplified using primers CaERG11_A_(ApaI) (5′-[…]-3′) and CaERG11_E_(XhoI) (5′-[…]-3′). The resulting DNA fragment was purified and Sanger sequenced on an ABI model 3130XL genetic analyzer with the following sequencing primers: CaERG11SeqA (5′-[…]-3′), CaERG11SeqB (5′-[…]-3′), CaERG11SeqC (5′-[…]-3′), CaERG11SeqD (5′-[…]-3′), CaERG11SeqE (5′-[…]-3′), and CaERG11SeqF (5′-[…]-3′).
(§4) Azole MICs were determined using the broth microdilution method described by the Clinical Laboratory and Standards Institute ([45], [46]). […] Measurements were read visually at 24 h after incubation at 35°C for a 50% reduction in growth from that in the drug-free control wells. MIC measurements were performed in duplicate, and the MIC was reported as the higher of two values for all strains tested. In cases where the duplicate MIC values were not identical, the higher of the two MIC values is reported. […] Additionally, no MICs differed by more than 2 dilutions for a given strain and drug.

Experiment [11] deals with C. albicans SC5314 strain with CaCYP51 substitution S405F. Briefly: CLSI broth microdilution MIC. The experiment is classed as cell-based, Candida albicans. To be noted: for MIC: Candida albicans, SC5314, RPMI 1640, 24 h, 35°C, 50% reduction in growth.
Description: as §3, §4
Background: Broth dilution looks for growth in wells or tubes with falling amounts of substance.

The target of experiment [12] is CaCYP51 proteins with amino acid substitutions. Briefly: CYP51 reconstitution assay, span over several CaCYP51 proteins. The experiment is classed as biochemical, Candida albicans. As to the method:
as §1

SMILES strings stand for the structures. Values after ≈ are worked out from the molar mass of the structure shown. Values joined by “and” are separate entries in the source; they are usually repeats but may differ in a detail not shown here. Equal entries are not always repeated.

What is called Kd is a measure of binding affinity in units of concentration. The MIC is the lowest concentration that inhibits growth of the organism. A lower MIC goes with a more susceptible organism.

T2 sequence (P10613 whole entry, looked up, stated change not applied): as above
T3 sequence (P10613 whole entry, looked up, stated change not applied): as above
T6 sequence (P10613 whole entry, looked up, stated change not applied): as above

Take `OC(Cn1cncn1)(Cn1cncn1)c1ccc(F)cc1F` [Fluconazole, fluconazole]: the “fold increase in IC50 over wild-type enzyme” value in experiment [1] was 10 fold and 10.1 fold; in experiment [2] it was 15 fold and 15.3 fold. Further, the Kd is 202 ± 57 nM in experiment [3]; 158 ± 38 nM in [4] (4 μM protein, 22°C, ± standard deviation, triplicate, read-out: dissociation constant (Kd)); 118 ± 24 nM in experiment [5]; 15600 nM in experiment [6]; 120 ± 35 nM in experiment [7]; 133 ± 13 nM in experiment [8]. In addition, the Kd in experiment [9] is 232 ± 36 nM. Moreover, the results for the “Kd, fold higher than wild-type enzyme” value in experiment [3] (Y132F+F145L) and in [4] were 4 fold and 3 fold, respectively. In experiment [6] (Y132F+K143R), the “Kd, fold larger than wild-type enzyme” value stood at 312 fold. The “fold increase in MIC over SC5314” value in [10] and in experiment [11] was “at least 2 fold” throughout. Further, the MIC in experiment [10] was 8 µg/mL (≈ 26.1 µM); in experiment [11], 4 µg/mL (≈ 13.1 µM).

As for `CCC(C)n1ncn(-c2ccc(N3CCN(c4ccc(OCC5COC(Cn6cncn6)(c6ccc(Cl)cc6Cl)O5)cc4)CC3)cc2)c1=O` (centres unmarked) [Itraconazole, itraconazole], in [6], the Kd was determined as 127 ± 33 nM. In addition, the MIC in experiment [10] and in experiment [11] was 0.25 µg/mL (≈ 0.354 µM) throughout. In experiment [12] (none of the substituted CaCYP51 proteins greater than this), the “IC50 relative to that of the wild-type enzyme” value was at most 1.6 fold.

`CC[C@@H]([C@H](C)O)n1ncn(-c2ccc(N3CCN(c4ccc(OC[C@@H]5CO[C@@](Cn6cncn6)(c6ccc(F)cc6F)C5)cc4)CC3)cc2)c1=O` [Posaconazole, posaconazole]: the “fold increase in IC50 over wild-type enzyme” value in experiment [1] amounted to 2.2 fold. For the same molecule, the MIC in [10] and in experiment [11] was at most 0.03 µg/mL throughout.

Consider `C[C@@H](c1ncncc1F)[C@](O)(Cn1cncn1)c1ccc(F)cc1F` [Voriconazole, voriconazole], for which the MIC in [10] and in [11] was 0.25 µg/mL (≈ 0.716 µM) each time. Moreover, the “Residual CYP51 activity, span over proteins” value in experiment [12] (4 μM voriconazole, K143R, S279F, G450E, Y132F+K143R, Y132H+K143R, Y132F+F145L, D278N+G464S) is “over 3%”.
